# Laboratory results reported in PMC11224403, “Des-acyl ghrelin reduces alcohol intake and alcohol-induced reward in rodents” (Translational Psychiatry, 2024).
# Key:
# male and female rats = assay: Intermittent-access alcohol drinking, repeated DAG injections; assay type: in vivo, Rcc Han Wistar rats; settings: for 4-h alcohol intake, overall / 24-h alcohol intake, overall: repeated DAG 1 mg/kg IP at three drinking sessions
# From the text: (§1) Male and female Rcc Han Wistar rats (8–12 weeks old at arrival; Envigo, Horst, Netherlands) were used for the alcohol drinking and locomotor activity experiments as they drink alcohol to intoxicating levels. For in vivo microdialysis studies male Wistar rats (Charles River, Calco, Italy) were used as they display robust dopamine levels in NAc shell after alcohol injection. […] All rodents were allowed to habituate to the animal facility at least one week before they entered an experiment. During housing (20 °C with 50% humidity) the rodents had free access to water and standard chow (Teklad Rodent Diet; Envigo, Madison, WI, USA). These experiments were approved by the Ethics Committee for Animal Experiments (ethical numbers: 1457/18, 3276/18, 1556/18, 3348/20; Gothenburg, Sweden) and followed the ARRIVE guidelines. The sample sizes of each experiment were based on previous experience in which statistical significance has been detected. The person who conducted the experiments, and analyzed the collected data was aware of the treatment allocation. Only preset exclusion criteria were used when analyzing the data obtained in attempts to exclude confounding factors in analyzing data. In the alcohol drinking experiments leaking bottles and low alcohol consumption (<3.0 g/kg for males; <3.5 g/kg for females) were preset exclusion criteria. The preset exclusion criterion in the ex vivo HPLC-EC, ELISA, and recombinant cell line experiments was contamination of the sample. Misplaced probes, technical difficulties, and damages to the surgery area were preset exclusion criteria for the in vivo microdialysis experiment. Intra-cage male aggression was the preset exclusion criterion for the locomotor activity and CPP experiments. To minimize tentative confounding factors, the order of treatments was stratified, with treatments being mixed for each animal cage and for each apparatus used as well as balancing the alcohol intake between future treatment groups. Although each experiment only was performed once, they were separated over different laboratory days with equal data obtained between sessions.
# Alcohol (95%; Solveco AB, Stockholm, Sweden) was either diluted to a 20% solution using tap water (drinking experiment) or to a 15% (w/v) solution with 0.9% NaCl. Alcohol was in the behavioral and neurochemical tests injected (intraperitoneally, IP) 5 min before the test. A dose of 1.75 g/kg was used in male mice as it causes robust locomotor stimulation and induces a CPP [37–39], and 2 g/kg was used for rats as it elevates the dopamine levels in NAc shell. DAG (Tocrise Bioscience, Bristol, UK) was dissolved in 0.9% NaCl in doses (0.25–2 mg/kg) known to reduce food intake and DAG was injected IP).
# Individually housed rats had intermittent access to an alcohol (20%) bottle and a water bottle, three 24-h sessions per week, and only water bottles the remaining days. A reversed light/dark cycle was used, and the bottles were changed when the lights went out. First, the rats consumed alcohol for 10 weeks (baseline drinking), where the bottles and food were weighed daily and the body weight weekly. During treatments, the bottles and food were weighed at 4- and/or 24-h and the body weight was measured daily. In the first drinking experiment, the potential of DAG to reduce alcohol consumption was tested and therefore, vehicle or DAG (1 mg/kg) was acutely injected into male (n = 12) or female (n = 12) rats. The second drinking experiment was conducted to establish the effects of lower DAG doses on alcohol intake. Therefore, separate male (n = 18) or female (n = 18) rats, were acutely injected with lower DAG doses (0.5 or 0.25 mg/kg) or vehicle. The third alcohol drinking experiment evaluated the ability of repeated DAG injections to lower alcohol drinking. Therefore, additional male (n = 24) and female (n = 24) rats were injected with either vehicle or DAG (1 mg/kg) at three alcohol-drinking sessions. […]
# [1] = system: monoaminergic neurotransmission in VTA and other brain areas; assay: Ex vivo monoamine content (HPLC-EC) in brain areas of alcohol-drinking rats after repeated DAG; set-up: species or system Rcc Han Wistar rats
# From the text: as §1
# Individually housed rats had intermittent access to an alcohol (20%) bottle and a water bottle, three 24-h sessions per week, and only water bottles the remaining days. A reversed light/dark cycle was used, and the bottles were changed when the lights went out. First, the rats consumed alcohol for 10 weeks (baseline drinking), where the bottles and food were weighed daily and the body weight weekly. During treatments, the bottles and food were weighed at 4- and/or 24-h and the body weight was measured daily. In the first drinking experiment, the potential of DAG to reduce alcohol consumption was tested and therefore, vehicle or DAG (1 mg/kg) was acutely injected into male (n = 12) or female (n = 12) rats. The second drinking experiment was conducted to establish the effects of lower DAG doses on alcohol intake. Therefore, separate male (n = 18) or female (n = 18) rats, were acutely injected with lower DAG doses (0.5 or 0.25 mg/kg) or vehicle. The third alcohol drinking experiment evaluated the ability of repeated DAG injections to lower alcohol drinking. Therefore, additional male (n = 24) and female (n = 24) rats were injected with either vehicle or DAG (1 mg/kg) at three alcohol-drinking sessions. At the end of the third drinking session, the rats were euthanized and decapitated, and the brains were placed in a brain-slicing matrix. Brain areas central for reward (VTA, NAc shell, NAc core, LDTg, dorsal striatum, hippocampus, paraventricular thalamus, prefrontal cortex, central amygdala) were punched and stored at −80 °C. Each sample was homogenized, and then the monoamine content in the supernatant was analyzed in an HPLC-EC system as described before, allowing tentative determination of brain regions, directly or indirectly, affected by DAG.
# The obtained data are normally distributed and with equal variance. […]
# [2] = female rats, repeated DAG 1 mg/kg IP
# [3] = female rats, n = 7 vs vehicle n = 9
# [4] = female rats, repeated DAG 1 mg/kg IP, drinking session 2, n = 7 vs vehicle n = 9
# [5] = female rats, repeated DAG 1 mg/kg IP, n = 7 vs vehicle n = 9
# [6] = male rats, repeated DAG 1 mg/kg IP
# [7] = male rats, n = 8 vs vehicle n = 8
# [8] = alcohol-drinking female rats, repeated DAG n = 7 vs vehicle n = 9
# [9] = alcohol-drinking male rats, repeated DAG n = 8 vs vehicle n = 7
substance,measurement,setting,value
"des-acyl ghrelin (GSSFLSPEHQRVQQRKESKKPPAKLQPR; Ghrelin-28 non-acylated; UniProt Q9UBU3 24-51, looked up) [DAG, non-octanoylated form of ghrelin; purchased from Tocris (printed Tocrise Bioscience), dissolved in 0.9% NaCl]",alcohol preference,male and female rats; [2],remained unaltered by repeated injections of DAG
same,body weight,male and female rats; [2],not affected by repeated DAG treatment
same,total fluid intake,male and female rats; [2],remained unaltered by repeated injections of DAG
same,water intake,male and female rats; [2],remained unaltered by repeated injections of DAG
same,"4-h alcohol intake, overall",male and female rats; [3],"overall reduced the alcohol consumption at the 4-h time point (treatment F1,14 = 9.17, P = 0.0090 **; time F2,28 = 12.63, P = 0.0001; interaction F2,28 = 1.02, P = 0.3754)"
same,"24-h alcohol intake, overall",male and female rats; [3],"An overall decline in 24-h alcohol intake was observed (treatment F1,14 = 14.72, P = 0.0018 **; time F2,28 = 2.91, P = 0.0711; interaction F2,28 = 6.43, P = 0.0051 ##)"
same,"4-h alcohol intake, session 2",male and female rats; [4],a decrease specifically evident at alcohol drinking session 2 (P = 0.0158)
same,"4-h food intake, session 2",male and female rats; [4],The lowered food intake by DAG was found at alcohol drinking session 2 (P = 0.0475)
same,"4-h food intake, overall",male and female rats; [5],"A lowered food intake by repeated DAG injections was observed at the 4-h (treatment F1,14 = 4.80, P = 0.0460 *; time F2,28 = 4.79, P < 0.0001; interaction F2,28 = 0.57, P = 0.5742)"
same,24-h food intake,male and female rats; [5],"not at the 24-h time point (treatment F1,14 = 0.53, P = 0.4798; time F2,28 = 1.68, P = 0.2049; interaction F2,28 = 0.19, P = 0.8269)"
same,body weight,male and female rats; [6],unchanged after repeated DAG injections
same,preference for alcohol,male and female rats; [6],unchanged after repeated DAG injections
same,water intake,male and female rats; [6],unchanged after repeated DAG injections
same,"4-h alcohol intake, overall",male and female rats; [7],"overall decrease in alcohol intake at the A 4-h time point (treatment F1,14 = 5.12, P = 0.0401 *; time F2,28 = 1.87, P = 0.1754; interaction F2,28 = 0.59, P = 0.5622)"
same,"24-h alcohol intake, overall",male and female rats; [7],"An overall reduction in alcohol intake was observed after DAG injections (treatment F1,14 = 1.96, P = 0.1836; time F2,28 = 3.44, P = 0.0460; interaction F2,28 = 4.34, P = 0.0228 #)"
same,"total fluid intake, 24-h","male and female rats; male rats, repeated DAG 1 mg/kg IP, 24 h",overall decline in the total fluid intake at the 24-h time point (P = 0.0304)
same,"24-h alcohol intake, session 2","male and female rats; male rats, repeated DAG 1 mg/kg IP, drinking session 2, n = 8 per group",specifically at alcohol drinking session 2 (P = 0.0324)
same,"4-h alcohol intake, session 3","male and female rats; male rats, repeated DAG 1 mg/kg IP, drinking session 3, n = 8 per group",specifically lower after DAG at alcohol drinking session 3 (P = 0.0256)
same,4-h food intake,"male and female rats; male rats, repeated DAG 1 mg/kg IP, n = 8 per group (4-h statistics)","did not alter the food intake at any time point (4-h: treatment F1,14 = 1.41, P = 0.2546; time F2,28 = 6.86, P = 0.0045; interaction F2,28 = 0.05, P = 0.9518"
same,24-h food intake,"male and female rats; male rats, repeated DAG 1 mg/kg IP, n = 8 per group (24-h statistics)","24-h: treatment F1,14 = 0.55, P = 0.4727; time F2,28 = 13.79, P < 0.0001; interaction F2,28 = 1.03, P = 0.3707"
same,"ex vivo DOPAC level, VTA",[1]; [8],"did not change the levels of D DOPAC (t14 = 0.41, P = 0.6904)"
same,"ex vivo HVA level, VTA",[1]; [8],"did not change the levels of D DOPAC (t14 = 0.41, P = 0.6904), E HVA (t14 = 0.66, P = 0.5196)"
same,"ex vivo dopamine level, VTA",[1]; [8],"did not change the levels of D DOPAC (t14 = 0.41, P = 0.6904), E HVA (t14 = 0.66, P = 0.5196), or F dopamine (t14 = 0.12, P = 0.9080)"
same,"dopamine turnover, 5-HIAA, serotonin and serotonin turnover, VTA","[1]; alcohol-drinking male or female rats, repeated DAG","neither affected the dopamine turnover, 5-hydroxy indole acetic acid (5-HIAA), serotonin, nor serotonin turnover"
same,"ex vivo noradrenaline level, VTA","[1]; alcohol-drinking male rats, repeated DAG","tended to elevate the ex vivo noradrenaline levels in this area of male rats (Supplementary Fig. 4E, P = 0.0819)"
same,"ex vivo DOPAC level, VTA",[1]; [9],"increased the ex vivo levels of A DOPAC (t13 = 2.94, P = 0.0116)"
same,"ex vivo HVA level, VTA",[1]; [9],"increased the ex vivo levels of A DOPAC (t13 = 2.94, P = 0.0116) and B HVA (t13 = 3.00, P = 0.0102)"
same,"ex vivo dopamine level, VTA",[1]; [9],"tended to elevate the dopamine levels (t13 = 1.72, P = 0.1091)"
same,monoaminergic neurotransmission in other brain areas,"[1]; males and females, repeated DAG, central amygdala, hippocampus, laterodorsal tegmental area, NAc core and shell, prefrontal cortex, paraventricular thalamus, striatum, data not shown","Neither in males nor females, DAG altered the monoaminergic neurotransmission"
